Series [1] has as its system conditioned avoidance response, rats. The experiment in a line: Inhibition of conditioned behaviour (conditioned avoidance response) in rats (Test 5). Type of series: in vivo. The following applies: Rattus norvegicus, sc, read-out: Inhibition of conditioned avoidance response, rats ED50. The text has this:
5. Inhibition of conditioned behaviour in rats. These tests were in accord with published test procedures and protocols, for instance: 5.

The subject of series [2] is exploratory behaviour, mice. The experiment in a line: Inhibition of climbing in mice (inhibition of exploratory behaviour) (Test 2). Type of series: in vivo. The following applies: Mus musculus, sc, read-out: Inhibition of exploratory behaviour, mice ED50. The text has this:
2. Inhibition of climbing in mice (inhibition of exploratory behaviour).
2. Sandberg, S. in Arzneimittelforschung, 9, 203 (1958)

The test system of series [3] is Amphetamine antagonism, rats. The experiment in a line: Amphetamine antagonism in rats (antipsychotic effect) (Test 3). Type of series: in vivo. Particulars: for ED50: Rattus norvegicus, sc, read-out: Amphetamine antagonism, rats ED50; for activity in Test 3 (amphetamine antagonism; antipsychotic/anxiolytic effect), in words: Table-Test No. 3. The text has this:
3. Amphetamine antagonism in rats (antipsychotic effect).
3. Randrup, A. et al. in Acta Pharmacol. (Kph), 20, 145 (1963)

The test system of series [4] is aggressive behaviour in male mice. The experiment in a line: Inhibition of aggressive behaviour in male mice (Test 1). Type of series: in vivo. Particulars: for ED50: Mus musculus, sc, read-out: Inhibition of agression, mice ED50. The text has this:
Methylperon -- formula hereinbefore mentioned (R3 = H; R4 = CH3) chlorpromazine [drawing 23] in each of the following established standard tests: 1. Inhibition of aggressive behaviour in male mice.
1. Valzelli, L. in Aggressive Behaviour, Eds. Garattini and Sigg, p. 70 (1969)

Series [5] is described as follows: Cataleptogenic effect in rats (measure of the extrapyramidal side effects) (Test 4). Particulars: rat, in vivo, sc. The series is classed as in vivo. The text has this:
(§1) 4. Cataleptogenic effect in rats (measure of the extrapyramidal side effects).
(§2) 4. Stille, G. in Schweiz.

Series [6] is described as follows: Toxicity, subcutaneously on mice. Particulars: mouse, in vivo, sc. The text has this:
The antipsychotic effect as shown in Test No. 3 is further confirmed by the blocking of apomorphine emesis in dogs. Ref: Janssen, P. A. J. et al. Arzneimittelforschung, 1, 1196 (1965) Furthermore, the compounds have a pronounced serotonine inhibiting effect, Ref: Alps, J. et al. Br. J. Pharmac. 44, 52 (1972) and a strong anti-inflammatory effect (measured with carrageenin-induced edema in rats). Ref: Takashima, T. et al. Arzneimittelforschung 22, 711 (1972) Their toxicity is rather low, 200 - 300 mg/kg. In comparison, the toxicity for haloperidol is 70 mg/kg and for methylperon is 280 mg/kg (all toxicities being performed subcutaneously on mice).

For series [7], the system named is Cataleptogenic effect, rats. The experiment in a line: Cataleptogenic effect in rats (measure of the extrapyramidal side effects) (Test 4). The series is classed as in vivo. The following applies: rats, Table-Test No. 4.
From the text: as §1, §2

The mark [8] stands for this setting: rats, s.c., measure of the extrapyramidal side effects, read-out: Cataleptogenic effect, rats ED50.

Structures can show the parent of a compound that is named as a salt. Where two headings read alike, the source gives them in different places.

As to `CN(C)CCCN1c2ccccc2Sc2ccc(Cl)cc21` [Chlorpromazine, reference compound], the median effective dose (ED50) in series [1] was found to be 4.5 mg/kg; in series [2], 0.75 mg/kg; in series [3] it was 1.2 mg/kg; in series [4], 0.4 mg/kg; in series [5] (setting [8]) it was 4.5 mg/kg. Further, the “activity in Test 3 (amphetamine antagonism; antipsychotic/anxiolytic effect), in words” value in series [3] was “not very active”.
In the case of `COC1(C)CCN(CCCC(=O)c2ccc(F)cc2)CC1` [Example 1, gamma-(4-methyl-4-methoxy-piperidino)-p-fluorobutyrophenone], the median effective dose (ED50) in series [1] (rats, s.c.) amounted to 0.6 mg/kg; in series [2] (mice, s.c.), 0.65 mg/kg; in series [3] (rats, s.c.) it was 0.35 mg/kg; in series [4] (mice, s.c.), 0.2 mg/kg; in series [5] (setting [8]), 10 mg/kg.
As to `CCOC1(C)CCN(CCCC(=O)c2ccc(F)cc2)CC1` [Example 2], the ED50 in series [1] (rats, s.c.) came to 1.3 mg/kg; in series [2] (mice, s.c.), 1 mg/kg; in series [3] (rats, s.c.) it was 0.1 mg/kg; in series [4] (mice, s.c.), 0.7 mg/kg; in series [5] (setting [8]), 6 mg/kg.
Turning to `CCCOC1(C)CCN(CCCC(=O)c2ccc(F)cc2)CC1` [Example 3], the median effective dose (ED50) came to 0.5 mg/kg in series [1] (rats, s.c.); 1 mg/kg in series [2] (mice, s.c.); 0.2 mg/kg in series [3] (rats, s.c.); 0.35 mg/kg in series [4] (mice, s.c.); 7 mg/kg in series [5] (setting [8]).
Take `CCCCOC1(C)CCN(CCCC(=O)c2ccc(F)cc2)CC1.Cl` [Example 4, gamma-(4-methyl-4-butoxypiperidino)-p-fluorobutyrophenone hydrochloride]: the ED50 worked out at 2.5 mg/kg in series [1] (rats, s.c.); 2 mg/kg in series [2] (mice, s.c.); 0.75 mg/kg in series [3] (rats, s.c.); 0.35 mg/kg in series [4] (mice, s.c.); 20 mg/kg in series [5] (setting [8]).
Take `CCC1(OC)CCN(CCCC(=O)c2ccc(F)cc2)CC1` [Example 5]: the ED50 in series [1] (rats, s.c.) stood at 1.5 mg/kg; in series [2] (mice, s.c.) it was 0.7 mg/kg; in series [3] (rats, s.c.), 0.1 mg/kg; in series [4] (mice, s.c.), 0.7 mg/kg; in series [5] (setting [8]), 10 mg/kg.
Regarding `CCOC1(CC)CCN(CCCC(=O)c2ccc(F)cc2)CC1` [Example 6, gamma-(4-ethyl-4-ethoxypiperidino)-p-fluoro-4-butyrophenone hydrochloride], the ED50 is 1.5 mg/kg in series [1] (rats, s.c.); 1.4 mg/kg in series [2] (mice, s.c.); 0.1 mg/kg in series [3] (rats, s.c.); 0.08 mg/kg in series [4] (mice, s.c.); 5 mg/kg in series [5] (setting [8]).
`CCCOC1(CC)CCN(CCCC(=O)c2ccc(F)cc2)CC1` [Example 7]: the ED50 in series [2] (mice, s.c.) was determined as 1.2 mg/kg; in series [3] (rats, s.c.), 0.35 mg/kg; in series [4] (mice, s.c.) it was 0.7 mg/kg; in series [5] (setting [8]), 6 mg/kg.
Take `CCCC1(OC)CCN(CCCC(=O)c2ccc(F)cc2)CC1` [Example 8]: the ED50 came out at 5.5 mg/kg in series [1] (rats, s.c.); 3.1 mg/kg in series [2] (mice, s.c.); 1 mg/kg in series [3] (rats, s.c.); 0.5 mg/kg in series [4] (mice, s.c.); 6.2 mg/kg in series [5] (setting [8]).
For `COC1(C(C)C)CCN(CCCC(=O)c2ccc(F)cc2)CC1.Cl` [Example 10, gamma-(4-isopropyl-4-methoxy-piperidino)-p-fluorobutyrophenone hydrochloride], in that order: 1.2 mg/kg, 1.1 mg/kg, 0.1 mg/kg, 0.15 mg/kg and 5 mg/kg.
Turning to `CCCCC1(OCC)CCN(CCCC(=O)c2ccc(F)cc2)CC1` [Example 12], the ED50 was found to be 5 mg/kg in series [1] (rats, s.c.); 1.6 mg/kg in series [2] (mice, s.c.); 0.07 mg/kg in series [3] (rats, s.c.); 0.35 mg/kg in series [4] (mice, s.c.); 3 mg/kg in series [5] (setting [8]).
As to `CCCCCC1(OCC)CCN(CCCC(=O)c2ccc(F)cc2)CC1` [Example 13], the ED50 in series [2] (mice, s.c.) is 1.3 mg/kg; in series [3] (rats, s.c.), 0.35 mg/kg; in series [4] (mice, s.c.) it was 0.5 mg/kg; in series [5] (setting [8]), 6.8 mg/kg.
For the compound `O=C(CCCN1CCC(O)(c2ccc(Cl)cc2)CC1)c1ccc(F)cc1` [Haloperidol, reference compound], the median effective dose (ED50) in series [1] stood at 0.15 mg/kg; in series [2], 1.3 mg/kg; in series [3], 0.03 mg/kg; in series [4] it was 0.8 mg/kg; in series [5] (setting [8]), 0.27 mg/kg. In addition, the median lethal dose (LD50) in series [6] stood at 70 mg/kg. Further, the “extrapyramidal / cataleptogenic effect, in words” value in series [7] was “pronounced cataleptogenic effect in rats”.
In the case of `CC1CCN(CCCC(=O)c2ccc(F)cc2)CC1` [Methylperon, reference compound], the ED50 in series [1] (rats, s.c.) is 6.8 mg/kg; in series [2] (mice, s.c.) it was 2 mg/kg; in series [3] (rats, s.c.), 3.5 mg/kg; in series [4] (mice, s.c.), 2.2 mg/kg; in series [5], 12 mg/kg. Besides, the “activity in Test 3 (amphetamine antagonism; antipsychotic/anxiolytic effect), in words” value in series [3] is “not very active”. In series [6], the LD50 was 280 mg/kg. Besides, the “activity in Test 1 (antiaggressive), in words” value in series [4] (Table-Test No. 1) is “not very active”.
